From patent US12678515B2, “Lipids and lipid nanoparticle formulations for delivery of nucleic acids” (Acuitas Therapeutics, Inc., priority 2015, dated 2026)

System: luciferase expression in the liver
Assay: In vivo luciferase mRNA expression rodent model (lipid nanoparticle formulations of cationic lipids)
Set-up: species or system mice
Details: luciferase expression in liver 4 hours after tail vein injection; LNP 50% cationic lipid/10% DSPC/38.5% cholesterol/1.5% PEG-DMA; MC3 activity=1
Protocol: Cationic lipid (MC3), DSPC, cholesterol and PEG-lipid were solubilized in ethanol at a molar ratio of 50:10:38.5:1.5. Lipid nanoparticles (LNP) were prepared at a total lipid to mRNA weight ratio of approximately 10:1 to 30:1. Briefly, the mRNA was diluted to 0.2 mg/mL in 10 to 50 mM citrate buffer, pH 4. Syringe pumps were used to mix the ethanolic lipid solution with the mRNA aqueous solution at a ratio of about 1:5 to 1:3 (vol/vol) with total flow rates above 15 mL/min. The ethanol was then removed and the external buffer replaced with PBS by dialysis. Finally, the lipid nanoparticles were filtered through a 0.2 μm pore sterile filter. Lipid nanoparticle particle size was approximately 55-95 nm diameter, and in some instances approximately 70-90 nm diameter as determined by quasi-elastic light scattering using a Malvern Zetasizer Nano ZS (Malvern, UK) or by using a Nicomp 370 submicron particle sizer (Santa Barbara, CA).
Studies were performed in 6-8 week old female C57BL/6 mice (Charles River) 8-10 week old CD-1 (Harlan) mice (Charles River) according to guidelines established by an institutional animal care committee (ACC) and the Canadian Council on Animal Care (CCAC). Varying doses of mRNA-lipid nanoparticle were systemically administered by tail vein injection and animals euthanized at specific time points (1, 2, 4, 8 and 24 hrs) post-administration. Liver and spleen were collected in pre-weighed tubes, weights determined, immediately snap frozen in liquid nitrogen and stored at −80° C. until processing for analysis.
For liver, approximately 50 mg was dissected for analyses in a 2 mL FastPrep tubes (MP Biomedicals, Solon OH). ¼″ ceramic sphere (MP Biomedicals) was added to each tube and 500 μL of Glo Lysis Buffer—GLB (Promega, Madison WI) equilibrated to room temperature was added to liver tissue. Liver tissues were homogenized with the FastPrep24 instrument (MP Biomedicals) at 2×6.0 m/s for 15 seconds. Homogenate was incubated at room temperature for 5 minutes prior to a 1:4 dilution in GLB and assessed using SteadyGlo Luciferase assay system (Promega). Specifically, 50 μL of diluted tissue homogenate was reacted with 50 μL of SteadyGlo substrate, shaken for 10 seconds followed by 5 minute incubation and then quantitated using a CentroXS^3 LB 960 luminometer (Berthold Technologies, Germany). The amount of protein assayed was determined by using the BCA protein assay kit (Pierce, Rockford IL). Relative luminescence units (RLU) were then normalized to total μg protein assayed. To convert RLU to ng luciferase a standard curve was generated with QuantiLum Recombinant Luciferase (Promega). Based on the data provided in FIG. 1, the four-hour time point was chosen for efficacy evaluation of the lipid formulations (see Example 3). […]

Compound	Activity Relative to MC3
CCCCCCCCC(CCCCCC)COC(=O)CCCCCCCCCCCC(CCCCCCCCCCCC(=O)OCC(CCCCCC)CCCCCCCC)OC(=O)CCCN(C)C (stereo not shown) [Compound 2, 1,25-di-(2′-hexyldecyl)13-{[4-(dimethylamino)butanoyl]oxy}pentacosanedioate]	~0.75
CCCCC/C=C\C/C=C\CCCCCCCCC(CCCCCCCC/C=C\C/C=C\CCCCC)OC(=O)CCCN(C)C [MC3, reference compound]	1
CCCCCCCCC(CCCCCC)C(=O)OCCCCCCCCCC(CCCCCCCCCOC(=O)C(CCCCCC)CCCCCCCC)OC(=O)CCCN(C)C (stereo not shown) [Compound 1, 10-{[4′-(dimethylamino)butanoyl]oxy}-19-[(2-hexyldecanoyl)oxy]nonadecyl 2-hexyldecanoate]	~2
CCCCCCCCC(CCCCCC)C(=O)OCCCCCCCCCC(CCCCCCCCCOC(=O)C(CCCCCC)CCCCCCCC)OC(=O)CCCCN(C)C (stereo not shown) [Compound 3, 10-{[5-(dimethylamino)pentanoyl]oxy}-19-[(2-hexyldecanoyl)oxy]nonadecyl 2-hexyldecanoate]	~8
